This is an account of results in US20240343681A1, “MOLECULES HAVING PESTICIDAL UTILITY AND INTERMEDIATES AND PROCESSES RELATED THERETO” (priority 2021, published 2024).

Molecules are shown by their SMILES.

In assay [1] the test system is Beet Armyworm (Spodoptera exigua, LAPHEG) second instar larva. Nature of the assay: Bioassay on beet armyworm (BAW), 128-well diet tray assay. The format is in vivo. As to conditions: 50 μg/cm^2 on artificial diet, 25° C., five days. The procedure, abridged: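 Test molecule in 90:10 acetone–water applied at 50 μg/cm^2 onto 1 mL artificial diet and dried; one second-instar larva per well, eight wells. Held 5 days at 25 °C, 14:10 light–dark; percent mortality averaged over the eight wells.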

Assay [2] deals with Yellow Fever Mosquito (Aedes aegypti, AEDSAE) larvae. Briefly: Bioassay on yellow fever mosquito (YFM), 96-well plate larval assay. The class given is in vivo. As to conditions: 4000 ppm (master plate solution), about 1 day-old larvae, 3 days. Here is the method: Example B: Bioassays on Yellow Fever Mosquito (Aedes aegypti, AEDSAE) (“YFM”)
Master plates containing 400 μg of a molecule dissolved in 100 μL of dimethyl sulfoxide (DMSO) (equivalent to a 4000 ppm solution) are used. A master plate of assembled molecules contains 15 μL per well. To this plate, 135 μL of a 90:10 water/acetone mixture is added to each well. A robot (Biomek® NXP Laboratory Automation Workstation) is programmed to dispense 15 μL aspirations from the master plate into an empty 96-well shallow plate (“daughter” plate). There are 6 reps (“daughter” plates) created per master. The created “daughter” plates are then immediately infested with YFM larvae.
The day before plates are to be treated, mosquito eggs are placed in Millipore water containing liver powder to begin hatching (4 g into 400 mL). After the “daughter” plates are created using the robot, they are infested with 220 μL of the liver powder/larval mosquito mixture (about 1 day-old larvae). After plates are infested with mosquito larvae, a non-evaporative lid is used to cover the plate to reduce drying. Plates are held at room temperature for 3 days prior to grading. After 3 days, each well is observed and scored based on mortality.

`N#Cc1ccc(C(=O)Nc2cc(NC(=O)[C@H]3[C@H](c4cc(Cl)cc(Cl)c4)C3(Cl)Cl)ccc2Cl)cc1` (racemic) [F70, trans-rac-N-(2-Chloro-5-(2,2-dichloro-3-(3,5-dichlorophenyl)cyclopropane-1-carboxamido)phenyl)-4-cyanobenzamide]: the “activity against BAW (percent mortality, averaged over eight wells)” value in assay [1] is “exhibited activity”. For the same molecule, the “activity against YFM (scored based on mortality)” value (shortened to “activity against YFM”) in assay [2] is “exhibited activity”.
Turning to `N#Cc1ccc(C(=O)Nc2cc(NC(=O)[C@H]3[C@H](c4cc(Cl)cc(Cl)c4)C3(Cl)Cl)ccc2Cl)c(F)c1` (racemic) [F71, trans-rac-N-(2-Chloro-5-(2,2-dichloro-3-(3,5-dichlorophenyl)cyclopropane-1-carboxamido)phenyl)-4-cyano-2-fluorobenzamide], the “activity against BAW (percent mortality, averaged over eight wells)” value in assay [1] is reported as “exhibited activity”. Further, the “activity against YFM” value in assay [2] is recorded as “exhibited activity”.
For `N#Cc1ccc(C(=O)Nc2cc(NC(=O)[C@H]3[C@H](c4cc(Cl)cc(Cl)c4)C3(Cl)Cl)ccc2Cl)cc1F` (racemic) [F72, trans-rac-N-(2-Chloro-5-(2,2-dichloro-3-(3,5-dichlorophenyl)cyclopropane-1-carboxamido)phenyl)-4-cyano-3-fluorobenzamide], the “activity against BAW (percent mortality, averaged over eight wells)” value in assay [1] is given as “exhibited activity”. The “activity against YFM” value in assay [2] is on record as “exhibited activity”.
In the case of `Cc1cccc(C(=O)Nc2cc(NC(=O)[C@H]3[C@H](c4cc(Cl)cc(Cl)c4)C3(Cl)Cl)ccc2Cl)c1` (racemic) [F74, trans-rac-N-(2-Chloro-5-(2,2-dichloro-3-(3,5-dichlorophenyl)cyclopropane-1-carboxamido)phenyl)-3-methylbenzamide], in assay [1], the “activity against BAW (percent mortality, averaged over eight wells)” value is reported as “exhibited activity”. For the same molecule, the “activity against YFM” value in assay [2] is “exhibited activity”.
`Cc1ccc(C(=O)Nc2cc(NC(=O)[C@H]3[C@H](c4cc(Cl)cc(Cl)c4)C3(Cl)Cl)ccc2Cl)cc1` (racemic) [F75, trans-rac-N-(2-Chloro-5-(2,2-dichloro-3-(3,5-dichlorophenyl)cyclopropane-1-carboxamido)phenyl)-4-methylbenzamide]: the “activity against BAW (percent mortality, averaged over eight wells)” value in assay [1] is “exhibited activity”. Further, the “activity against YFM” value in assay [2] is given as “exhibited activity”.
`Cc1cc(F)ccc1C(=O)Nc1cc(NC(=O)[C@H]2[C@H](c3cc(Cl)cc(Cl)c3)C2(Cl)Cl)ccc1Cl` (racemic) [F77, trans-rac-N-(2-Chloro-5-(2,2-dichloro-3-(3,5-dichlorophenyl)cyclopropane-1-carboxamido)phenyl)-4-fluoro-2-methylbenzamide]: in assay [1], the “activity against BAW (percent mortality, averaged over eight wells)” value is “exhibited activity”. Also, the “activity against YFM” value in assay [2] is on record as “exhibited activity”.
Take `O=C(Nc1cc(NC(=O)[C@H]2[C@H](c3cc(Cl)cc(Cl)c3)C2(Cl)Cl)ccc1Cl)c1ccccc1Cl` (racemic) [F78, trans-rac-2-Chloro-N-(2-chloro-5-(2,2-dichloro-3-(3,5-dichlorophenyl)cyclopropane-1-carboxamido)phenyl)benzamide]: in assay [1], the “activity against BAW (percent mortality, averaged over eight wells)” value is recorded as “exhibited activity”. Besides, the “activity against YFM” value in assay [2] was “exhibited activity”.
Turning to `O=C(Nc1cc(NC(=O)[C@H]2[C@H](c3cc(Cl)cc(Cl)c3)C2(Cl)Cl)ccc1Cl)c1ccc(Cl)cc1` (racemic) [F79, trans-rac-4-Chloro-N-(2-chloro-5-(2,2-dichloro-3-(3,5-dichlorophenyl)cyclopropane-1-carboxamido)phenyl)benzamide], in assay [1], the “activity against BAW (percent mortality, averaged over eight wells)” value is “exhibited activity”. Moreover, the “activity against YFM” value in assay [2] is reported as “exhibited activity”.
In the case of `O=C(Nc1cc(NC(=O)[C@H]2[C@H](c3cc(Cl)cc(Cl)c3)C2(Cl)Cl)ccc1Cl)c1cc(Cl)cc(Cl)c1` (racemic) [F80, trans-rac-3,5-Dichloro-N-(2-chloro-5-(2,2-dichloro-3-(3,5-dichlorophenyl)cyclopropane-1-carboxamido)phenyl)benzamide], in assay [1], the “activity against BAW (percent mortality, averaged over eight wells)” value is reported as “exhibited activity”. The “activity against YFM” value in assay [2] was “exhibited activity”.
Turning to `O=C(Nc1cc(NC(=O)[C@H]2[C@H](c3cc(Cl)cc(Cl)c3)C2(Cl)Cl)ccc1Cl)c1ccc(C(F)(F)F)cc1` (racemic) [F82, trans-rac-N-(2-Chloro-5-(2,2-dichloro-3-(3,5-dichlorophenyl)cyclopropane-1-carboxamido)phenyl)-4-(trifluoromethyl)benzamide], in assay [1], the “activity against BAW (percent mortality, averaged over eight wells)” value was “exhibited activity”. In assay [2], the “activity against YFM” value is reported as “exhibited activity”.
Turning to `O=C(Nc1cc(NC(=O)[C@H]2[C@H](c3cc(Cl)cc(Cl)c3)C2(Cl)Cl)ccc1Cl)c1ccc(F)c(C(F)(F)F)c1` (racemic) [F83, trans-rac-N-(2-Chloro-5-(2,2-dichloro-3-(3,5-dichlorophenyl)cyclopropane-1-carboxamido)phenyl)-4-fluoro-3-(trifluoromethyl)benzamide], in assay [1], the “activity against BAW (percent mortality, averaged over eight wells)” value is “exhibited activity”. Moreover, in assay [2], the “activity against YFM” value is reported as “exhibited activity”.
With `COc1cccc(C(=O)Nc2cc(NC(=O)[C@H]3[C@H](c4cc(Cl)cc(Cl)c4)C3(Cl)Cl)ccc2Cl)c1` (racemic) [F84, trans-rac-N-(2-Chloro-5-(2,2-dichloro-3-(3,5-dichlorophenyl)cyclopropane-1-carboxamido)phenyl)-3-methoxybenzamide], the “activity against BAW (percent mortality, averaged over eight wells)” value in assay [1] was “exhibited activity”. Besides, in assay [2], the “activity against YFM” value is “exhibited activity”.
Turning to `COc1ccc(C(=O)Nc2cc(NC(=O)[C@H]3[C@H](c4cc(Cl)cc(Cl)c4)C3(Cl)Cl)ccc2Cl)cc1` (racemic) [F85, trans-rac-N-(2-Chloro-5-(2,2-dichloro-3-(3,5-dichlorophenyl)cyclopropane-1-carboxamido)phenyl)-4-methoxybenzamide], the “activity against BAW (percent mortality, averaged over eight wells)” value in assay [1] was “exhibited activity”. Besides, the “activity against YFM” value in assay [2] was “exhibited activity”.
With `O=C(COCC(F)(F)F)Nc1c(F)ccc(NC(=O)[C@H]2[C@H](c3ccc(F)c(C(F)(F)F)c3)C2(Cl)Cl)c1F` (racemic) [F95, trans-rac-2,2-Dichloro-N-(2,4-difluoro-3-(2-(2,2,2-trifluoroethoxy)acetamido)phenyl)-3-(4-fluoro-3-(trifluoromethyl)phenyl)cyclopropane-1-carboxamide], the “activity against BAW (percent mortality, averaged over eight wells)” value in assay [1] is on record as “exhibited activity”. Further, the “activity against YFM” value in assay [2] is listed as “exhibited activity”.
For the molecule `O=C(Nc1cc(NC(=O)[C@H]2[C@H](c3ccc(F)c(C(F)(F)F)c3)C2(Cl)Cl)ccc1Cl)c1ccc(NC(=O)C(F)F)cc1F` (racemic) [F111, trans-rac-N-(2-Chloro-5-(2,2-dichloro-3-(4-fluoro-3-(trifluoromethyl)phenyl)cyclopropane-1-carboxamido)phenyl)-4-(2,2-difluoroacetamido)-2-fluorobenzamide], the “activity against BAW (percent mortality, averaged over eight wells)” value in assay [1] is given as “exhibited activity”. The “activity against YFM” value in assay [2] was “exhibited activity”.
For the molecule `O=C(Nc1cc(NC(=O)[C@H]2[C@H](c3ccc(F)c(C(F)(F)F)c3)C2(Cl)Cl)ccc1Cl)c1ccc(NC(=O)C(F)(F)F)cc1F` (racemic) [F112, trans-rac-N-(2-Chloro-5-(2,2-dichloro-3-(4-fluoro-3-(trifluoromethyl)phenyl)cyclopropane-1-carboxamido)phenyl)-2-fluoro-4-(2,2,2-trifluoroacetamido)benzamide], in assay [1], the “activity against BAW (percent mortality, averaged over eight wells)” value is recorded as “exhibited activity”. Also, in assay [2], the “activity against YFM” value is “exhibited activity”.
On to `CC(=O)Nc1ccc(C(=O)Nc2cc(NC(=O)[C@H]3[C@H](c4ccc(F)c(C(F)(F)F)c4)C3(Cl)Cl)ccc2Cl)c(C)c1F` (racemic) [F113, trans-rac-4-Acetamido-N-(2-chloro-5-(2,2-dichloro-3-(4-fluoro-3-(trifluoromethyl)phenyl)cyclopropane-1-carboxamido)phenyl)-3-fluoro-2-methylbenzamide], for which the “activity against BAW (percent mortality, averaged over eight wells)” value in assay [1] is on record as “exhibited activity”. Further, the “activity against YFM” value in assay [2] is on record as “exhibited activity”.
In the case of `Cc1c(C(=O)Nc2cc(NC(=O)[C@H]3[C@H](c4ccc(F)c(C(F)(F)F)c4)C3(Cl)Cl)ccc2Cl)ccc(NC(=O)CC(F)(F)F)c1F` (racemic) [F114, trans-rac-N-(2-Chloro-5-(2,2-dichloro-3-(4-fluoro-3-(trifluoromethyl)phenyl)cyclopropane-1-carboxamido)phenyl)-3-fluoro-2-methyl-4-(3,3,3-trifluoropropanamido)benzamide], the “activity against BAW (percent mortality, averaged over eight wells)” value in assay [1] is reported as “exhibited activity”. Also, the “activity against YFM” value in assay [2] is on record as “exhibited activity”.
